A short description of data set [1]: Plasma dosimetry of PFHxSA and PFHxS by targeted LC/MS/MS. It counts as in vivo, rat. The note with it: for concentration at 24 h: male, Sprague Dawley (Crl:CD(SD)), rat, oral, mean ± SD, read-out: PFHxS Male Plasma Conc. The text has this:
The plasma and liver samples for this investigation were provided by Mutlu et al.. The study design, including detailed descriptions of animal handling, procedures for dosing, clinical observations, termination, and collection of tissues, is reported elsewhere and is consistent with the ARRIVE guidelines. Briefly, male and female Sprague Dawley (SD) rats (Crl:CD(SD)) (n = 48/sex, 96 total) were purchased from Charles River Laboratory (Raleigh, NC, USA) and allowed to acclimate for ≥5 days before initial dosing. Rats were 8–10 weeks old at the time of exposure. PFHxSA dosing solutions in corn oil were prepared on Day 0 and used over the course of the study. Rats of both sexes (n = 5/sex, dose, and time point, plus eight vehicle controls per sex) were dosed by oral gavage (5 mL/kg body weight) once daily for five days. […] The formulation concentrations decreased from 100 mg/kg/day at half-log10 intervals until the lowest dose level, which was a full log10 interval below the next higher dose, giving eight dose levels (0.01 to 100 mg/kg/day or 0.025 µmol/kg/day to 250 µmol/kg/day) in addition to vehicle controls. Doses were administered in randomized order within ± 1 h on each day of dosing. […] Rats were euthanized 24 h after the last dose. Blood was collected via cardiac puncture with tripotassium ethylene diamine tetraacetic acid (K3EDTA) as an anti-coagulant and centrifuged to collect cell-free plasma. Liver was collected and flash-frozen in liquid nitrogen. Liver, plasma, and dosing formulation samples were frozen at the USEPA Center for Computational Toxicology and Exposure (CCTE), Durham, NC, USA. Tissue samples (plasma and liver, n = 96 each) were stored at ≤−70 °C prior to extraction; dosing formulation samples (n = 9) were stored at −20 °C.
Detailed information on solvents and standards used for targeted LC/MS/MS of PFHxSA and PFHxS can be found in SI Text S1 and SI Table S1. Plasma and liver preparations were modified from Conley et al.. Briefly, aliquots of plasma (25 µL) and liver (~10 mg) were spiked with PFOSA as an internal standard, as no isotope-labeled PFHxSA was available. Sample batches included up to 96 samples along with an MB, CCV, and LCS for QC. Commercial plasma (mixed-sex SD rat plasma) and liver (mixed-sex SD rat) were obtained from BioIVT (Westbury, NY, USA). Cold acetonitrile (ACN) with 0.1 M formic acid was used to precipitate proteins. Liver and plasma samples were prepared similarly, except that the livers were homogenized after solvent addition. Plasma samples were vortexed to mix before being chilled at −20 °C, after which samples were centrifuged at 5 °C and 10,000× g. Liver samples were chilled at −80 °C, then homogenized using an Omni International (Kennesaw, GA, USA) Bead Ruptor 24. Liver homogenates were centrifuged at 26,000× g and 5 °C. Supernatants from the extraction of both matrices were removed and stored at −20 °C until analysis. Refer to SI Text S4 for additional experimental details and information on calibration and QC parameters for quantitation of PFHxSA.
Targeted LC/MS/MS of PFHxSA was performed on a Sciex 4000 QTRAP LC/MS/MS system operated in negative ESI mode with MRM scanning. A Restek (Bellefonte, PA, USA) Raptor Polar X (100 mm × 2 mm, 2.7 µm) column was used for liquid chromatography. Isocratic elution occurred over 10 min with a 30:70 ratio of mobile phase A (10 mM ammonium formate): mobile phase B (60:40 ACN: methanol). Both mobile phases included 0.05% formic acid. The LOQs for PFHxSA were 0.100 µM in plasma and 0.351 µM in liver. Additional details of the instrument method parameters for targeted analysis of PFHxSA are provided in SI Table S5. The MRM transitions for the PFHxSA method are provided in SI Table S6. […]

Data set [2] in a line: In vitro-in vivo extrapolation (IVIVE) to estimate Css, human. As for the experimental part: Intrinsic hepatic clearance (Clint) and fraction unbound in plasma (fup) were calculated from the experimental point estimate data as described in Dobreniecki et al.. Steady-state concentrations (Css) were derived based on zero-order uptake of an assumed daily dose from the gut (assuming 100% intestinal bioavailability) but considering hepatic clearance and non-metabolic renal clearance. Renal clearance was calculated using the glomerular filtration rate (a species-dependent constant) and the fraction unbound in blood (fub), estimated by adjusting the experimental fup for blood/plasma partitioning. The Css calculations, along with underlying species-specific physiologic scalars, are detailed in SI Texts S6 and S7. […]
hepatocytes). In equation (C), the scalar 2000 is used to adjust the assay cell number to be consistent with units of 1 million cells in the Clint equation.
Text S7 In Vitro-In Vivo Extrapolation (IVIVE) Calculations
The pharmacokinetic equation used to estimate expected steady-state concentrations (Css) is based on zero-order uptake of a daily dose from the gut (assuming 100% bioavailability) with both nonmetabolic renal clearance (Clrenal) and hepatic clearance (Clhepatic) (Equation D). The chemical input rate (ko) is the product of the intake dosage and the model body weight; this represents the numerator of Equation D. The Clrenal calculation is shown in the first part of the denominator of Equation D; it is the product of the species-dependent glomerular filtration rate (GFR) and the unbound fraction in blood (fub) of the parent compound. The Clhepatic calculation is shown in the second part of the denominator of Equation D; it is the product of the species-dependent liver blood flow constant, the fub of the parent compound, and the experimentally derived intrinsic clearance (shown in Equation C) divided by the sum of these three values. All values used in Equation D are for first-order conditions of metabolism in the […]

Like-named read-outs stand apart in the source and are kept apart here.

With `O=S(=O)(O)C(F)(F)C(F)(F)C(F)(F)C(F)(F)C(F)(F)C(F)(F)F` [PFHxS, perfluorohexane sulfonic acid], in data set [1] (across the dose range), the “Male PFHxS plasma concentrations higher than female at the same dose level” value is reported as 4–10 times. For the same compound, the “Female level of PFHxS lower than males, on average” value in data set [1] (doses of 10 mg/kg/day and up, plasma) came to 5.3 fold. Besides, in data set [1] (female rats, after oral PFHxSA), the “PFHxS lower than PFHxSA in female plasma, on average” value is listed as 5.3 fold. Also, the “PFHxS plasma concentrations higher than coincident PFHxSA plasma levels” value in data set [1] (male rats, PFHxSA 30 and 100 mg/kg/day) was 1.6- to 6 fold. Besides, the concentration at 24 h in data set [1] (plasma, PFHxSA 10 mg/kg/day oral 5 days, male rats) was found to be 76.9 µM; in data set [1] (plasma, PFHxSA 30 mg/kg/day oral 5 days, male rats), 136 µM; in data set [1] (plasma, PFHxSA 100 mg/kg/day oral 5 days, male rats), 396 µM. Also, the “Male PFHxS/PFHxSA concentration ratios higher than female ratios” value in data set [1] (plasma and liver) is recorded as “approximately 10 fold”. For the same compound, the “Css (steady-state concentration)” value in data set [2] (Human, IVIVE-derived, assumes 1 mg/kg/day exposure) is listed as 669 µM. The CL renal in data set [2] (Human, non-metabolic, GFR x fub, read-out: Clrenal (renal clearance) (converted)) is 0.183 mL/min. Besides, the “Predicted Css in humans higher than rats” value in data set [2] (cross-species IVIVE comparison) is 3- to 10 fold. Moreover, in data set [2] (human), the “IVIVE-derived Css lower for PFHxS compared to PFHxSA” value is on record as 2.25 fold.

The values are drawn from paper PMC12737022, “Evaluations of Sex Differences in Dosimetry in Rats Following Perfluorohexanesulfonamide (PFHxSA) Oral Exposure” (Toxics, 2025).
